# Test results: the supplement of paper PMC10307832
# Key:
# Assay in all cases: relative viability (nuclei count vs DMSO), 5 days (fraction); higher = more cells survive
# NCI-H1793 = settings: first compound 4 µM
# Procedure, shortened: (§1)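 Relative viability is defined as nuclei in treated wells over nuclei in vehicle wells. Duplicate plates were run and medians reported. Lung cancer cell lines in 1536-well plates were dosed by pin tool one day after seeding, with one drug or with a fixed anchor-drug dose plus five library-drug doses (not always all listed) in √10 steps, and nuclei were counted after 5 days.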
# NCI-H1650 = system: NCI-H1650
# Procedure, shortened: as §1
# NCI-H1944 = system: NCI-H1944
# Procedure, shortened: as §1
# LC-2-ad = system: LC-2-ad
# Procedure, shortened: as §1
# NCI-H2405 = system: NCI-H2405
# Procedure, shortened: as §1
# HCC-15 = system: HCC-15
# Procedure, shortened: as §1
# NCI-H2009 = system: NCI-H2009
# Procedure, shortened: as §1
# NCI-H1734 = system: NCI-H1734
# Procedure, shortened: as §1
# LK-2 = system: LK-2
# Procedure, shortened: as §1
# COR-L23 = system: COR-L23
# Procedure, shortened: as §1
# HCC-78 = system: HCC-78
# Procedure, shortened: as §1
# NCI-H23 = system: NCI-H23
# Procedure, shortened: as §1
# NCI-H2023 = system: NCI-H2023
# Procedure, shortened: as §1
compound,measurement,setting,value
C[C@@H]1CN(CC(=O)Nc2ccc3c(c2)Cc2cccc(-c4cc(=O)cc(N5CCOCC5)o4)c2S3)C[C@H](C)O1 + CC(=O)c1c(C)c2cnc(Nc3ccc(N4CCNCC4)cn3)nc2n(C2CCCC2)c1=O [Palbociclib] (partner 0.5 µM),relative viability,NCI-H1793,0.2
same,relative viability,NCI-H1650; first compound 0.04 µM,0.376
same,relative viability,NCI-H1650; first compound 0.1265 µM,0.397
same,relative viability,NCI-H1650; first compound 0.4 µM,0.285
same,relative viability,NCI-H1650; first compound 4 µM,0.262
same,relative viability,NCI-H1944; first compound 0.1265 µM,0.343
same,relative viability,NCI-H1944; first compound 0.4 µM,0.344
same,relative viability,NCI-H1944; first compound 4 µM,0.354
same,relative viability,LC-2-ad; first compound 0.04 µM,0.493
same,relative viability,LC-2-ad; first compound 0.1265 µM,0.465
same,relative viability,LC-2-ad; first compound 0.4 µM,0.466
same,relative viability,LC-2-ad; first compound 4 µM,0.419
same,relative viability,NCI-H2405; first compound 0.04 µM,0.564
same,relative viability,NCI-H2405; first compound 0.1265 µM,0.521
same,relative viability,NCI-H2405; first compound 0.4 µM,0.486
same,relative viability,NCI-H2405; first compound 4 µM,0.506
same,relative viability,HCC-15; first compound 0.04 µM,0.706
same,relative viability,HCC-15; first compound 0.1265 µM,0.708
same,relative viability,HCC-15; first compound 0.4 µM,0.751
same,relative viability,HCC-15; first compound 4 µM,0.678
same,relative viability,NCI-H2009; first compound 0.04 µM,0.216
same,relative viability,NCI-H2009; first compound 0.1265 µM,0.214
same,relative viability,NCI-H2009; first compound 0.4 µM,0.206
same,relative viability,NCI-H2009; first compound 4 µM,0.206
same,relative viability,NCI-H1734; first compound 0.04 µM,0.386
same,relative viability,NCI-H1734; first compound 0.1265 µM,0.354
same,relative viability,NCI-H1734; first compound 0.4 µM,0.308
same,relative viability,NCI-H1734; first compound 4 µM,0.433
same,relative viability,LK-2; first compound 0.04 µM,0.6
same,relative viability,LK-2; first compound 0.1265 µM,0.697
same,relative viability,LK-2; first compound 0.4 µM,0.651
same,relative viability,LK-2; first compound 4 µM,0.792
same,relative viability,COR-L23; first compound 0.04 µM,0.294
same,relative viability,COR-L23; first compound 0.1265 µM,0.281
same,relative viability,COR-L23; first compound 0.4 µM,0.379
same,relative viability,COR-L23; first compound 4 µM,0.24
same,relative viability,HCC-78; first compound 0.04 µM,0.456
same,relative viability,HCC-78; first compound 0.1265 µM,0.458
same,relative viability,HCC-78; first compound 0.4 µM,0.48
same,relative viability,HCC-78; first compound 4 µM,0.487
same,relative viability,NCI-H23; first compound 0.04 µM,0.455
same,relative viability,NCI-H23; first compound 0.1265 µM,0.538
same,relative viability,NCI-H23; first compound 0.4 µM,0.436
same,relative viability,NCI-H23; first compound 4 µM,0.495
same,relative viability,NCI-H2023; first compound 0.04 µM,0.426
same,relative viability,NCI-H2023; first compound 0.1265 µM,0.336
same,relative viability,NCI-H2023; first compound 0.4 µM,0.371
same,relative viability,NCI-H2023; first compound 4 µM,0.288
